US10743813B2, “Diabetes control using postprandial feedback” (priority 2014, dated 2020)

Key:
[1] = tested on: Adults with Type 2 Diabetes Mellitus; details: starting HbA1c below 8; 300 mg/day; as long as 52 weeks; cited from earlier work
subject with T2D [2] = assay: Blood glucose response to postprandial exercise; format: in vivo, human
Procedure: The patient of Example 1 was encouraged to track glucose levels, including postprandial glucose levels, to observe the effect of postprandial exercise and lifestyle changes. To control triglyceridemia they also started over the counter orlistat at a 60 mg dose daily with a daily multi-vitamin supplement and an additional vitamin D supplement. They had discontinued metformin and statins. Instead close monitoring of blood glucose levels was undertaken.
In Example 2, when using orlistat at 60 mg daily, the patient noticed that blood glucose levels reduced to a level of about 90 to 100 mg/dL, which is in the normal range, after a modest meal with a brisk walk after eating. The blood glucose levels stayed below 100 mg/dL for several hours. […] Effectively exercise is contraindicated in standard of care treatments for T2D due to the use of medications that can drive the glucose levels too low.
A subject with T2D with fasting glucose levels of over 140 mg/dL was treated with 60 mg Orlistat. The subject undertook exercise in a postprandial state within about an hour and a half after eating. […]
The subject with T2D was treated with Pioglitazone 15 mg and postprandial exercise but no Exercise Sensitizer or SGLT2 inhibitor. Over twenty minutes of postprandial exercise glucose readings were taken every 5 minutes for fifteen minutes. […]
The subject with T2D was treated with Exercise Sensitizer Colestipol (1 gm dose) and postprandial exercise. Over twenty minutes of postprandial exercise glucose readings were taken every 5 minutes for fifteen minutes. […]
The subject with T2D was treated with Exercise Sensitizer Colestipol (1 gm) before each meal and with 60 mg. of Exercise Sensitizer Orlistat and 100 mg. of Canagliflozin daily. […] Over twenty minutes of postprandial exercise on an elliptical trainer at a resistance setting of 6, glucose readings dropped to about 81 to 84 mg/dL. […]

subject with T2D [3] = assay: Three month treatment with postprandial exercise: fasting glucose, HbA1c, triglycerides, BMI; format: in vivo, human; details: postprandial exercise with orlistat; from over 500 mg/dL
Procedure: Over three months to speed up the slow progress the subject with T2D with fasting glucose level of about 140 mg/dL and HbA1c of about 7.5 or above was treated with Orlistat at the lowest marketed dose of 60 mg and the lowest dose for either Canafliglozin (100 mg) and Dapagliflozin (5 mg). Postprandial exercise with orlistat reduced triglycerides to about 260 mg/dL from over 500 mg/dL.
An invasive glucose testing meter was used to simulate a post-prandial invasive/noninvasive glucose monitoring device. Specifically a combination of orlistat and a SGLT2 inhibitor (Canafliglozin and Dapagliflozin) was administered. Treatment with orlistat (60 mg) daily alone with […]
The fasting glucose levels changed and continued to decrease overall over the three months.
The fasting glucose levels were obtained using a portable glucose meter while the fasting glucose (again to check the meter and strip accuracy) and HbA1c were determined using laboratory tests that included a lipid panel. […] Also the subject could not be fully compliant—many meals were not followed by exercise. The treatment with Exercise Sensitizer and SGLT2 inhibitor was adhered to strictly. Still, the triglyceride levels dropped to 260 and eventually to about 220 from about 500. […]

subject with T2D [4] = assay: Blood glucose response to exercise in a fasting state; format: in vivo, human; details: 60 mg Orlistat; over fifteen to thirty minutes
Procedure: A subject with T2D with starting fasting glucose level of about 140 mg/dL to 160 mg/dL and HbA1c of about 8 was treated with Orlistat. In one aspect, the subject with T2D was treated with 60 mg Orlistat and exercised in a fasting state. […] Although not intending to be bound by theory, one factor may be the natural inhibition of gluconeogenesis in the postprandial state. In addition, the release of fatty acids or lack thereof may affect the release of cholecystokinin and other downstream effects and thus account for the synergy between the postprandial state and the Exercise Sensitizers.

Cc1ccc([C@@H]2O[C@H](CO)[C@@H](O)[C@H](O)[C@H]2O)cc1Cc1ccc(-c2ccc(F)cc2)s1 [Canagliflozin, (2S,3R,4R,5S,6R)-2-{3-[5-[4-Fluoro-phenyl)-thiophen-2-ylmethyl]-4-methyl-phenyl}-6-hydroxymethyl-tetrahydro-pyran-3,4,5-triol]
improvement in HbA1c [1]: less than 0.8

CCCCCCCCCCC[C@@H](C[C@@H]1OC(=O)[C@H]1CCCCCC)OC(=O)[C@H](CC(C)C)NC=O [Orlistat, (S)—((S)-1-((2S,3S)-3-Hexyl-4-oxooxetan-2-yl)tridecan-2-yl) 2-formamido-4-methylpentanoate]
blood/plasma glucose level after postprandial exercise (subject with T2D [2]; 60 mg Orlistat, exercise within about an hour and a half after eating, fasting glucose over 140 mg/dL): dropped sharply to the normal range | blood glucose level for several hours after the postprandial walk (subject with T2D [2]; orlistat 60 mg daily, several hours): below 100 mg/dL | triglycerides (subject with T2D [3]): about 260 mg/dL | blood/plasma glucose level on exercise in a fasting state (subject with T2D [4]): increased or remained steady in the high range

CCc1ccc(CCOc2ccc(CC3SC(=O)NC3=O)cc2)nc1 (stereo not drawn) [Pioglitazone]
blood glucose level during postprandial exercise (subject with T2D [2]; Pioglitazone 15 mg, at about ten minutes, then leveled off, from about 175 mg/dL): about 103 mg/dL
